Source: patent US20260374782A1, “NEW COMPOUNDS, PROCESSES FOR PREPARING THE SAME AND THEIR USE AS DRUGS” (B&A ONCOMEDICAL, priority 2022, published 2026)

Biological target: T1, NKCC1 (Homo sapiens, UniProt P55011)
T1 construct: endogenous in cells; host or cells: native HEK293 cells
T1 sequence (P55011 1-1212): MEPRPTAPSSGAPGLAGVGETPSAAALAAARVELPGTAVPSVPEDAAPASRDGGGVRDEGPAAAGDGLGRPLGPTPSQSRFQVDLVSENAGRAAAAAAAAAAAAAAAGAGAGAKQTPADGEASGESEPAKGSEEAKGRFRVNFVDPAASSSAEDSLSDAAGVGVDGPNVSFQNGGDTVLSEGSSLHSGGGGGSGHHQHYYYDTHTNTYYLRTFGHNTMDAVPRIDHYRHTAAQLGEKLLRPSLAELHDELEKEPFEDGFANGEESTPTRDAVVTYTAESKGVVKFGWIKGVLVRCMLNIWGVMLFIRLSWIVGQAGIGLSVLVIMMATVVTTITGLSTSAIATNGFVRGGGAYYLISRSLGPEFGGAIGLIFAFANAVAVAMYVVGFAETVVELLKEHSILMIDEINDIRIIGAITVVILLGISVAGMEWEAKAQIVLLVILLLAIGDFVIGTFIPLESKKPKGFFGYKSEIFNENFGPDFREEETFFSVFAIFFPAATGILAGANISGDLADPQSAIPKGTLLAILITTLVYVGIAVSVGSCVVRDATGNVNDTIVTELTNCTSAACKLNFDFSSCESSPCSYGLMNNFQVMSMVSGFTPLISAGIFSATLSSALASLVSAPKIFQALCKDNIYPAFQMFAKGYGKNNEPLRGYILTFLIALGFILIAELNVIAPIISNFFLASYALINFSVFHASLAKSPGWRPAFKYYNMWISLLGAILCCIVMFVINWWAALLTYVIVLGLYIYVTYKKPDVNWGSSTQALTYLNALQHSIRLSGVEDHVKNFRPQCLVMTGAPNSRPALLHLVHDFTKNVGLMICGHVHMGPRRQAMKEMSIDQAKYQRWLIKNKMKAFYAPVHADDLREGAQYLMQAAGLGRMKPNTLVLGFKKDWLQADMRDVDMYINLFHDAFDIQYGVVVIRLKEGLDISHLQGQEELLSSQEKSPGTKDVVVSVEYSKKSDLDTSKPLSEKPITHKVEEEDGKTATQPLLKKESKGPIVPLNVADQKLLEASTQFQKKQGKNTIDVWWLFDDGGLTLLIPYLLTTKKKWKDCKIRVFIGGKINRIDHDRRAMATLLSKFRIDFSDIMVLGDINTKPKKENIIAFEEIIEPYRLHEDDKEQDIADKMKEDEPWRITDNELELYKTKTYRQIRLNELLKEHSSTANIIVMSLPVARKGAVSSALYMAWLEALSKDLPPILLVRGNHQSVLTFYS
Experiment: NKCC1-mediated K+ influx (83Rb tracer uptake) in native HEK293 cells, hypertonic saline, 100 μM ouabain
Format: cell-based
Conditions: HEK293, no drug = 1000, 20 μM bumetanide = 0; for inhibition at 2 µM: read-out: NKCC1 mediated flux inhibition at 2 μM (%); for inhibition at 20 µM: read-out: NKCC1 mediated flux inhibition at 20 μM (%)
Method in brief: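 Native cells in slightly hypertonic saline with 100 μM ouabain; 15 min preincubation then 15 min 83Rb uptake (0.25 μCi/mL), scintillation counting normalized to protein. Compounds at 2 μM and 20 μM; flux scaled 1000 (no drug) to 0 (20 μM bumetanide), triplicate dishes.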

Compound | inhibition at 2 µM [%] | inhibition at 20 µM [%]
CCCCNc1cc(C(=O)O)cc(S(=O)(=Nc2ccccc2)N2CCCCCC2)c1Oc1ccccc1 (stereo not drawn) [Compound 101, 3-[S-(azepan-1-yl)-N-phenyl-sulfonimidoyl]-5-(butylamino)-4-phenoxy-benzoic acid] | 10 to 30 | 10 to 30
CCCCNc1cc(C(=O)NC)cc(S(=N)(=O)NCc2ccccc2)c1Oc1ccccc1 (centres unmarked) [Compound 102, 3-[(benzylamino)sulfonimidoyl]-5-(butylamino)-N-methyl-4-phenoxy-benzamide] | – | 10 to 30
CCCCNc1cc(C(=O)NC)cc(S(=N)(=O)NCC2CCOCC2)c1Oc1ccccc1 (centres unmarked) [Compound 103, 3-(butylamino)-N-methyl-4-phenoxy-5-[(tetrahydropyran-4-ylmethylamino)sulfonimidoyl]benzamide] | 30 to 50 | 50 to 75
CCCCNc1cc(C(=O)NC)cc(S(=N)(=O)Nc2ccccc2)c1Oc1ccccc1 (centres unmarked) [Compound 104, 3-(anilinosulfonimidoyl)-5-(butylamino)-N-methyl-4-phenoxy-] | 30 to 50 | –
CCCCNc1cc(C(=O)N(C)C)cc(S(=N)(=O)Nc2ccccc2)c1Oc1ccccc1 (centres unmarked) [Compound 105, 3-(anilinosulfonimidoyl)-5-(butylamino)-N,N-dimethyl-4-phenoxy-benzamide] | 30 to 50 | 10 to 30
CCCCNc1cc(C(=O)NC2CC2)cc(S(=N)(=O)Nc2ccccc2)c1Oc1ccccc1 (centres unmarked) [Compound 106, 3-(anilinosulfonimidoyl)-5-(butylamino)-N-cyclopropyl-4-phenoxy-benzamide] | 30 to 50 | –
CCCCNc1cc(C(=O)NCC2CC2)cc(S(=N)(=O)Nc2ccccc2)c1Oc1ccccc1 (centres unmarked) [Compound 107, 3-(anilinosulfonimidoyl)-5-(butylamino)-N-(cyclopropylmethyl)-4-phenoxy-benzamide] | – | 10 to 30
CCCCNc1cc(C(=O)NOC)cc(S(=N)(=O)Nc2ccccc2)c1Oc1ccccc1 (centres unmarked) [Compound 108, 3-(anilinosulfonimidoyl)-5-(butylamino)-N-methoxy-4-phenoxy-benzamide] | 30 to 50 | 30 to 50
CCCCNc1cc(C(=O)NCCOC)cc(S(=N)(=O)Nc2ccccc2)c1Oc1ccccc1 (centres unmarked) [Compound 109, 3-(anilinosulfonimidoyl)-5-(butylamino)-N-(2-methoxyethyl)-4-phenoxy-benzamide] | – | 10 to 30
CCCCNc1cc(C(=O)NCC(F)F)cc(S(=N)(=O)Nc2ccccc2)c1Oc1ccccc1 (centres unmarked) [Compound 110, 3-(anilinosulfonimidoyl)-5-(butylamino)-N-(2,2-difluoroethyl)-4-phenoxy-benzamide] | – | 10 to 30
CCCCNc1cc(C(=O)NCC(F)(F)F)cc(S(=N)(=O)Nc2ccccc2)c1Oc1ccccc1 (centres unmarked) [Compound 111, 3-(anilinosulfonimidoyl)-5-(butylamino)-N-(2,2,2-trifluoroethyl)-4-phenoxy-benzamide] | – | 10 to 30
CCCCNc1cc(C(=O)NC)cc(S(=N)(=O)N2Cc3ccccc3C2)c1Oc1ccccc1 (centres unmarked) [Compound 112, 3-(butylamino)-5-(isoindolin-2-ylsulfonimidoyl)-N-methyl-4-phenoxy-benzamide] | 10 to 30 | –
CCCCNc1cc(C(=O)NOC)cc(S(=N)(=O)N2Cc3ccccc3C2)c1Oc1ccccc1 (centres unmarked) [Compound 113, 3-(butylamino)-5-(isoindolin-2-ylsulfonimidoyl)-N-methoxy-4-phenoxy-benzamide] | 30 to 50 | 10 to 30
CCCCNc1cc(C(=O)NCCOC)cc(S(=N)(=O)N2Cc3ccccc3C2)c1Oc1ccccc1 (centres unmarked) [Compound 114, 3-(butylamino)-5-(isoindolin-2-ylsulfonimidoyl)-N-(2-methoxyethyl)-4-phenoxy-benzamide] | 30 to 50 | 10 to 30
CCCCNc1cc(C(=O)NCC(F)(F)F)cc(S(=N)(=O)N2Cc3ccccc3C2)c1Oc1ccccc1 (centres unmarked) [Compound 115, 3-(butylamino)-5-(isoindolin-2-ylsulfonimidoyl)-4-phenoxy-N-(2,2,2-trifluoroethyl)benzamide] | 50 to 75 | 10 to 30
CCCCNc1cc(C(=O)NC)cc(S(=N)(=O)NCc2cccc(Cl)c2)c1Oc1ccccc1 (centres unmarked) [Compound 116, 3-(butylamino)-5-[[(3-chlorophenyl)methylamino]sulfonimidoyl]-N-methyl-4-phenoxy-benzamide] | 30 to 50 | –
CCCCNc1cc(C(=O)NOC)cc(S(=N)(=O)NCc2cccc(Cl)c2)c1Oc1ccccc1 (centres unmarked) [Compound 117, 3-(butylamino)-5-[[(3-chlorophenyl)methylamino]sulfonimidoyl]-N-methoxy-4-phenoxy-benzamide] | 30 to 50 | 10 to 30
CCCCNc1cc(C(=O)NCCOC)cc(S(=N)(=O)NCc2cccc(Cl)c2)c1Oc1ccccc1 (centres unmarked) [Compound 118, 3-(butylamino)-5-[[(3-chlorophenyl)methylamino]sulfonimidoyl]-N-(2-methoxyethyl)-4-phenoxy-benzamide] | 10 to 30 | 10 to 30
CCCCNc1cc(C(=O)NCC(F)(F)F)cc(S(=N)(=O)NCc2cccc(Cl)c2)c1Oc1ccccc1 (centres unmarked) [Compound 119, 3-(butylamino)-5-[[(3-chlorophenyl)methylamino]sulfonimidoyl]-4-phenoxy-N-(2,2,2-trifluoroethyl)benzamide] | 10 to 30 | 10 to 30
CCCCNc1cc(C(=O)NCCC(F)(F)F)cc(S(=N)(=O)Nc2ccccc2)c1Oc1ccccc1 (centres unmarked) [Compound 120, 3-(anilinosulfonimidoyl)-5-(butylamino)-4-phenoxy-N-(3,3,3-trifluoropropyl)benzamide] | 30 to 50 | 30 to 50
CCCCNc1cc(C(=O)NOC)cc(S(=N)(=O)NC2CCOCC2)c1Oc1ccccc1 (centres unmarked) [Compound 121, 3-(butylamino)-N-methoxy-4-phenoxy-5-[(tetrahydropyran-4-ylamino)sulfonimidoyl]benzamide] | 30 to 50 | 30 to 50
CCCCNc1cc(C(=O)NCCOC)cc(S(=N)(=O)NC2CCOCC2)c1Oc1ccccc1 (centres unmarked) [Compound 122, 3-(butylamino)-N-(2-methoxyethyl)-4-phenoxy-5-[(tetrahydropyran-4-ylamino)sulfonimidoyl]benzamide] | 30 to 50 | 30 to 50
CCCCNc1cc(C(=O)NCC(F)(F)F)cc(S(=N)(=O)NC2CCOCC2)c1Oc1ccccc1 (centres unmarked) [Compound 123, 3-(butylamino)-4-phenoxy-5-[(tetrahydropyran-4-ylamino)sulfonimidoyl]-N-(2,2,2-trifluoroethyl)benzamide] | 30 to 50 | 10 to 30
CCCCNc1cc(C(=O)OC)cc(S(=O)(=O)Nc2ccccc2)c1Oc1ccccc1 [Compound 124, methyl 3-(butylamino)-4-phenoxy-5-(phenylsulfamoyl)benzoate] | 30 to 50 | 30 to 50
CCCCNc1cc(C(=O)O)cc(S(=O)(=O)Nc2ccccc2)c1Oc1ccccc1 [Compound 125, 3-(butylamino)-4-phenoxy-5-(phenylsulfamoyl)benzoic acid] | ≥ 75 | ≥ 75
CCCCNc1cc(-c2nnn[nH]2)cc(S(=O)(=O)Nc2ccccc2)c1Oc1ccccc1 [Compound 126, 3-(butylamino)-2-phenoxy-N-phenyl-5-(1H-tetrazol-5-yl)benzenesulfonamide] | 30 to 50 | ≥ 75
CCCCNc1cc(-c2nc(=O)o[nH]2)cc(S(=O)(=O)Nc2ccccc2)c1Oc1ccccc1 [Compound 127, 3-(butylamino)-5-(5-oxo-2H-1,2,4-oxadiazol-3-yl)-2-phenoxy-N-phenyl-benzenesulfonamide] | 10 to 30 | 30 to 50
CCCCNc1cc(C(=O)O)cc(S(C)(=N)=O)c1Oc1ccccc1 (centres unmarked) [Compound 130, 3-(butylamino)-5-(methylsulfonimidoyl)-4-phenoxy-benzoic acid] | 10 to 30 | 50 to 75
